# Data as given in patent publication US20100267626A1, “METHODS AND COMPOSITIONS FOR MEASURING WNT ACTIVATION AND FOR TREATING WNT-RELATED CANCERS” (Novartis AG, priority 2007, published 2010).
# Peptide text beside a SMILES is read from it. * marks the point of attachment. Cbz = O=C(OCc1ccccc1)*
# What was measured:
# [1] = system: Wnt3A stimulated STF activity; test: Wnt-responsive Super-Topflash (STF) luciferase reporter assay in HEK293 cells; assay type: cell-based
# From the text: The corresponding reporter activity for each compound dilution was normalized to DMSO and expressed as a percentage of the reporter activity in DMSO.
# To identify small molecule inhibitors of the Wnt/β-catenin pathway, a high-throughput compound screen was employed, with over one million compounds, using a Wnt-responsive Super-Topflash (STF) luciferase reporter assay in HEK293 cells.
# DLD-1 cells = test: Colony formation assay, DLD-1 cells; assay type: cell-based; settings: low serum growth conditions
# Procedure: FIG. 6A. […] DLD1 and RKO cells were seeded at […] in a 6-well plate in medium containing 0.5% serum and indicated compounds, and replenished with fresh medium every two days. Colonies were visualized by crystal violet staining.
# FIG. 6B. […] DLD1 cells were transfected with siRNAs against Axin1 and Axin2, and seeded at 1000 cells/well in a 6-well plate. The compound treatment was carried out as described in 6A.
# (§1) The colony formation assay was performed as follows: DLD1 and RKO cells were seeded in low serum growth medium (0.5% FBS) at 500 and 1000 cells/well, respectively, into […]. Sixteen hours after plating, compounds were added at the indicated concentrations. Medium was replenished every two days until colony formation was observed. Colonies were stained by a solution of 2 mg/ml crystal violet in buffered formalin and imaged on a Molecular Imager ChemiDoc XRS System (BioRad).
# TNKS = settings: doses 1 nM to 100 μM
# [2] = target: C-terminal PARP domain of TNKS2 (GST-TNKS2 PARP) (Homo sapiens, UniProt Q9H2K2); test: In vitro auto-PARsylation assay of TNKS2
# Chain of C-terminal PARP domain of TNKS2 (GST-TNKS2 PARP) (Q9H2K2 934-1166): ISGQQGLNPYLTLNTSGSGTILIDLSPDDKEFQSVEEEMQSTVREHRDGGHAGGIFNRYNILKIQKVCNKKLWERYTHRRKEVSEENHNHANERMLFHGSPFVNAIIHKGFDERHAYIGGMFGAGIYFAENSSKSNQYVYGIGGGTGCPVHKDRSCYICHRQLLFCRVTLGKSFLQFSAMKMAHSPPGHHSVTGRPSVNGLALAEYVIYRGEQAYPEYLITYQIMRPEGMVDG
# From the text: Tankyrase, utilizing NAD^+, catalyzes poly(ADP-ribosyl)ation of itself (autoparsylation) or targeted proteins (substrate parsylations). In each reaction turnover, the enzyme consumes one unit of NAD^+, add one unit of ADP-ribose to the polymer chain, releases one unit of nicotinamide. The autoparsylation activity assay is designed to monitor the nicotinamide formation and the reduction in the nicotinamide formation in the presence of tankyrase small molecule inhibitors. The quantification of nicotinamide is carried out by liquid chromatography/mass spectrometry (LC/MS).
# Prior to LC/MS analysis, the protein in the reaction mixture was removed by precipitation/centrifugation method after added two aliquots of acetonitrile.
# PARP1/2 = test: Dose response compound competition experiment (immunoblot); settings: doses 1 nM to 100 μM
# CRE luciferase reporter = CRE luciferase reporter in HEK293 cells (Forskolin activated); assay type: cell-based
# [3] = system: NF-κB luciferase reporter; test: NF-κB luciferase reporter in HEK293 cells (TNFα activated); assay type: cell-based
# TGFβ luciferase reporter = test: TGFβ (CAGA12) luciferase reporter in HEK293 cells; assay type: cell-based
# β-catenin [4] = test: Immunoblot of cytosolic β-catenin in Wnt3A stimulated HEK293 cells; assay type: cell-based
# Procedure: Cell lysates were fractionated and immunoblotted for cytosolic β-catenin.
# To generate cytosolic lysates, cells were scraped into hypotonic buffer (10 mM Tris-HCl pH7.5, 10 mM KCl), and cell lysates were cleared by centrifugation after four freeze-thaw cycles. In all above experiments, 1× protease inhibitor cocktail (Sigma) and 1× phosphatase inhibitor cocktail (Upstate) were added into lysis buffers.
# β-catenin [5] = test: Immunoblot of β-catenin and phospho-β-catenin in SW480 cells; assay type: cell-based, human
# Procedure: To generate cytosolic lysates, cells were scraped into hypotonic buffer (10 mM Tris-HCl pH7.5, 10 mM KCl), and cell lysates were cleared by centrifugation after four freeze-thaw cycles. In all above experiments, 1× protease inhibitor cocktail (Sigma) and 1× phosphatase inhibitor cocktail (Upstate) were added into lysis buffers. Commercial antibodies used in this study include goat anti-Axin1 antibodies (R&D Systems), rabbit anti-Axin2 antibodies and rabbit anti-phospho-β-catenin (pSer33/37/Thr41) antibodies (Cell Signaling Technology), mouse anti-TNKS antibodies (Abeam), mouse anti-HA (HA.11) antibodies (Covance), mouse anti-β-catenin antibodies, rabbit anti-Poly(ADP-ribose) antibodies, and rabbit anti-PARP1 antibodies (BD Pharmingen), mouse anti-ubiquitin antibody (MBL), rabbit anti-GFP antibodies (Clontech), mouse anti-tubulin and mouse anti-Flag (M2) antibodies (Sigma).
# Axin1 and Axin2 [6] = test: Immunoblot of Axin protein levels after compound treatment; assay type: cell-based, human; settings: after XAV939 treatment
# PARP2 = PARP2 (Homo sapiens, UniProt Q9UGN5); test: iTRAQ quantitative chemical proteomics competition, HEK293 cell lysates; assay type: binding; settings: 20 μM soluble compound, relative to DMSO
# Chain of PARP2 (Q9UGN5 whole entry, the tested form may be a part): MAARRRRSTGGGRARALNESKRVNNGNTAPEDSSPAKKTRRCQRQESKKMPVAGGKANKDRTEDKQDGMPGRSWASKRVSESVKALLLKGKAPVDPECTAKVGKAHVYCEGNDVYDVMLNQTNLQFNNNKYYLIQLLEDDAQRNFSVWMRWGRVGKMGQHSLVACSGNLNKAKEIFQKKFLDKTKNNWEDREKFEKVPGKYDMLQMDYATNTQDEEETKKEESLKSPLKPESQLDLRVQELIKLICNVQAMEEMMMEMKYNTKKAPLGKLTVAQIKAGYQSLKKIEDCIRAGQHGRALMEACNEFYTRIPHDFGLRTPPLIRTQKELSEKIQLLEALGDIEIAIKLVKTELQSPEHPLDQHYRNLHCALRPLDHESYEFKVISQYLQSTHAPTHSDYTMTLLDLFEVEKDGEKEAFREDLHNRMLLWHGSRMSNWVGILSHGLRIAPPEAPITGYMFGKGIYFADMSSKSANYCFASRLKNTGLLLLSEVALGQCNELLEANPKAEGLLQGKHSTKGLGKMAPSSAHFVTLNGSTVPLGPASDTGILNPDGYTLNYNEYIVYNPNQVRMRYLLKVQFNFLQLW
# Procedure: By using iTRAQ, a chemical peptide labeling technique, the 3 samples were multiplexed and quantified binding displacement (% competition) relative to the vehicle (DMSO) by LC-MS/MS analysis.
# Sequencing was performed by liquid chromatography-tandem mass spectrometry on a LTQ-Orbitrap mass spectrometer (Thermo-Finnigan). Tandem mass spectra were generated using pulsed-Q dissociation, enabling detection of iTRAQ reporter ions. Peptide mass and fragmentation data were used to query an in-house curated version of the IPI database using Mascot (Matrix Science). Protein identifications were validated using a decoy database. iTRAQ reporter ion-based quantification was performed with in-house developed software.
# Lysate was pre-cleared by centrifugation and protein concentration measured by Bradford assay. […] Then 100 μl of negative control-matrix was added and incubation resumed at 4° C. for another 60 min. After centrifugation, beads were transferred into a column (MoBiTech) and washed.
# GFP-Axin1 = GFP-Axin1 fusion construct protein levels in SW480 cell lines; assay type: cell-based, mouse
# From the text: FIG. 4E. The TNKS binding domain is required for XAV939-induced Axin1 protein accumulation. […] Total cell lysates were harvested and analyzed by immunoblotting.
# (§2) The SuperTopFlash (STF) methods described in at least Example 1 employed plasmids manufactured as follows: SuperTopflash reporter was generated by inserting twelve TCF binding sites into pTA-Luc (Clontech). Mouse Axin1 and its mutants were fused with either GFP or FLAG epitope at the amino termini and cloned into a retroviral vector under the control of the metallothionein promoter. Human TNKS1/2 and their mutants were tagged with FLAG epitope fused at the amino termini and cloned into a mammalian expression vector under the control of the cytomegalovirus (CMV) promoter. Drosophila Axin fused with three HA epitopes at the carboxyl terminus was cloned in a Drosophila expression vector under the control of the metallothionein promoter. A sequence encoding the amino terminal fragment of mouse Axin1 (a.a. 1-87) was cloned in a Tet-regulated expression vector pcDNA4-TO (Invitrogen). Several proteins were cloned using Gateway technology (Invitrogen) into the expression vector pDEST15 (Invitrogen, Carlsbad, Calif.): TNKS1-P(1088-1327), TNKS2-P(934-1166), TNKS2-SP (872-1166), PARP1-P (662-1014) and PARP16-P (93-273).
# The functional consequences of disrupting the physical interaction between Axin and TNKS were assessed. […]. […] […].
# Axin1 and Axin2 [7] = test: Axin ubiquitination in SW480 cells (immunoprecipitation/immunoblot); assay type: cell-based, human
# From the text: The position that Axin1 migrates is labeled with an arrow.
# FIG. 5E. […] (IP: immunoprecipitation, TCL: total cell lysates)
# GFP-Axin = test: PARsylation of exogenously expressed GFP-Axin in cells; assay type: cell-based, mouse; settings: anti-PAR antibody
# Procedure: FIG. 5D. In vivo PARsylation of Axin1. SW480 cells stably expressing GFP-Axin1 under control of the metallothionein promoter were incubated with Cu^2+ overnight to induce expression of GFP-Axin1. […] Lysates were harvested with RIPA buffer containing PARG inhibitor ADP-HPD (5 μM) and PARP1 inhibitor PJ34 (80 μM), immunoprecipitated with GFP antibody and analyzed by immunoblotting.
# as §2, with “Several proteins were cloned using Gateway technology (Invitrogen) into the expression vector pDEST15 (Invitrogen, Carlsbad, Calif.): TNKS1-P(1088-1327), TNKS2-P(934-1166), TNKS2-SP (872-1166), PARP1-P (662-1014) and PARP16-P (93-273).” left out
# RKO cells = test: Colony formation assay, RKO cells; assay type: cell-based; settings: low serum growth conditions, β-catenin independent cells
# Procedure: […]. DLD1 and RKO cells were seeded at 500 cells/well in a 6-well plate in medium containing 0.5% serum and indicated compounds, and replenished with fresh medium every two days. Colonies were visualized by crystal violet staining.
# as §1
# [8] = system: cell lines used in this study; test: Mitotic arrest phenotype in cell lines; assay type: cell-based; settings: low or high serum conditions
# From the text: TNKS1/TNKS2 have been described to regulate mitotic progression, telomere maintenance, and GLUT4 transport. (Canudas, S., et al. (2007) Embo J 26, 4867-78 (2007); Seimiya, H., et al. (2002) J Biol Chem 277, 14116-26) In particular, TNKS1 was proposed to be required for the resolution of sister telomere association or assembly of bipolar spindles, and TNKS1 knockdown was reported to cause strong mitotic arrest.
# Axin-GSK3β complex = Axin-GSK3β complex formation
# Procedure: Total cell lysates were prepared by cell lysis in RIPA buffer (50 mM Tris-HCl, pH 7.4, 150 mM NaCl, 1% NP-40, 0.5% sodium deoxycholate, 0.1% SDS, 1 mM EDTA). Equal amount of proteins were resolved by SDS-PAGE, transferred to nitrocellulose membranes and probed with indicated antibodies. For co-immunoprecipitation experiments, cells were lysed in EBC buffer (50 mM Tris-HCl, pH 7.4, 150 mM NaCl, 0.5% NP-40, 1 mM EDTA), cleared cell lysates were incubated with indicated antibodies and Protein G-sepharose beads overnight at 4° C. The beads were washed five times with lysis buffer. The bound proteins were dissolved in SDS sample buffer, resolved by SDS-PAGE, and blotted with indicated antibodies.
# [9] = system: Axin1 and Axin2 transcript; test: Axin transcript levels (quantitative RT-PCR); settings: after compound treatment
# Procedure: Total RNA from compound or siRNA treated cells was extracted using the RNeasy Mini Kit (Qiagen) and reverse transcribed with Taqman Reverse Transcription Reagents (Applied Biosystems) according to the manufacturer's instructions. Transcript levels were assessed using the ABI PRISM 7900HT Sequence Detection System. […] The thermocycling conditions utilized were 2 min at 50° C., 10 min at 95° C., followed by 40 cycles of 15 sec at 95° C. and 1 min at 60° C. All experiments were performed in triplicate. Gene expression analysis was performed using the comparative CT method with the housekeeping gene, GUSB, for normalization.
# Axin2 = test: PARsylation of endogenous Axin2 in compound wash-off experiment; settings: MG132 plus XAV939
# Procedure: Post-translational modification of Axin2 in a compound wash-off experiment. […] Cell lysates were harvested with RIPA buffer, immunoprecipitated with anti-Axin2 antibody, and analyzed by immunoblotting.
# Total cell lysates were prepared by cell lysis in RIPA buffer (50 mM Tris-HCl, pH 7.4, 150 mM NaCl, 1% NP-40, 0.5% sodium deoxycholate, 0.1% SDS, 1 mM EDTA). Equal amount of proteins were resolved by SDS-PAGE, transferred to nitrocellulose membranes and probed with indicated antibodies. For co-immunoprecipitation experiments, cells were lysed in EBC buffer (50 mM Tris-HCl, pH 7.4, 150 mM NaCl, 0.5% NP-40, 1 mM EDTA), cleared cell lysates were incubated with indicated antibodies and Protein G-sepharose beads overnight at 4° C. The beads were washed five times with lysis buffer. The bound proteins were dissolved in SDS sample buffer, resolved by SDS-PAGE, and blotted with indicated antibodies. To detect protein ubiquitination and PARsylation in vivo, cells were lysed with RIPA buffer supplemented with 5 mM NEM and 5 μM ADP-HPD to block the activities of Deubiquitinase and PARG, and followed by immunoprecipitation with indicated antibodies.
# [10] = wash-off experiment, MG132 alone
smiles,measurement,setting,value
CC(=O)N1CCc2nc(-c3ccc(C(F)(F)F)cc3)[nH]c(=O)c2C1 [LDW643],Wnt3A stimulated STF activity,[1],no activity
same,colony formation of DLD-1 cells,DLD-1 cells,did not affect
same,"activity in compound competition, TNKS binding",TNKS,no activity
same,auto-PARsylation of GST-TNKS2 PARP,[2],not affected
same,"activity in compound competition, PARP1/2 binding",PARP1/2,no activity
Oc1nc(-c2ccc(C(F)(F)F)cc2)nc2c1CSCC2 [XAV939],effect on CRE luciferase reporter,CRE luciferase reporter,did not affect
same,effect on NF-κB luciferase reporter,[3],did not affect
same,effect on TGFβ luciferase reporter,TGFβ luciferase reporter,did not affect
same,Wnt3A-induced accumulation of β-catenin,β-catenin [4],block
same,β-catenin abundance,β-catenin [5],decreased
same,β-catenin phosphorylation (S33/S37/T41),β-catenin [5],significantly increased
same,protein levels of Axin1 and Axin2,Axin1 and Axin2 [6],strongly increased
same,binding displacement (% competition) PARP2,PARP2,88%
same,GFP-Axin1Δ19-30 protein levels,GFP-Axin1; cells expressing GFP-Axin1Δ19-30 (TBD deleted),did not further respond
same,wild-type GFP-Axin1 protein levels,GFP-Axin1; cells expressing wild-type GFP-Axin1,strongly increased
same,Axin1 and Axin2 poly-ubiquitination,Axin1 and Axin2 [7]; co-treatment of XAV939 with MG132,significantly diminished
same,ubiquitination of Axin2,"Axin1 and Axin2 [7]; wash-off experiment, co-treatment with XAV939 and MG132",completely blocked
same,PARsylation signal of GFP-Axin in cells,GFP-Axin,strongly reduced
same,colony formation of DLD-1 cells,DLD-1 cells,significantly inhibited
same,colony formation in RKO cells,RKO cells,did not affect
same,mitotic arrest phenotype,[8],did not result in any overt mitotic arrest phenotype
same,Axin-GSK3β complex formation,Axin-GSK3β complex,strong increase
same,transcript levels of Axin1 and Axin2,[9],unaffected
same,anti-PAR antibody reactive signal co-migrating with Axin2,Axin2,disappeared
CC(C)C[C@@H](C=O)NC(=O)[C@H](CC(C)C)NC(=O)[C@H](CC(C)C)NC(=O)OCc1ccccc1 [MG132] (Cbz-Leu-Leu-Leu-aldehyde),poly-ubiquitination of Axin1,Axin1 and Axin2 [7]; MG132 alone,increased significantly
same,Axin2 degradation after XAV939 wash-off,Axin1 and Axin2 [7]; [10],blocked
same,Axin2 poly-ubiquitination after XAV939 wash-off,Axin1 and Axin2 [7]; [10],strongly increased
